Literature values in patent US20070042953A1, “Antiepileptogenic complex of albumin with docosahexaenoate” (priority 2005, published 2007).

What was measured:
[1] = test system: rat brain cells or hippocampal slices
[2] = test system: patients with chronic epilepsy; conditions: nutritional supplementation, first 6 weeks

CCC=CCC=CCC=CCC=CCC=CC/C=C\CCC(=O)[O-].[Na+] [DHA, cis-4,7,10,13,16,19-Docosahexaenoic acid, sodium salt]
epileptic activity in vitro [1]: attenuate epileptic activity
seizure frequency [2]: reduce seizure frequency in the first 6 weeks, but the effect was not sustained
